For this assay, the target named is High affinity choline transporter 1 (Homo sapiens) (UniProt Q9GZV3). Nature of the assay: CHT inhibition at low and high choline, SAR follow-up, mechanism study for choline transporter inhibitor project, cell-based, HEK-293 hCHT LV-AA, [3H]-choline (AID 652215). Particulars: [3H]-choline uptake, 15 min, at 5 µM, stronger effect = lower value; for activity remaining, high choline: measured here: 10 uM choline uptake.

The source made the active and inactive calls.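 The calls were made as follows: active = activity score of 50 or more, meaning choline uptake cut by at least half versus untreated control; inactive = the rest.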

Sequence of High affinity choline transporter 1 (Homo sapiens) (Q9GZV3 whole entry, looked up): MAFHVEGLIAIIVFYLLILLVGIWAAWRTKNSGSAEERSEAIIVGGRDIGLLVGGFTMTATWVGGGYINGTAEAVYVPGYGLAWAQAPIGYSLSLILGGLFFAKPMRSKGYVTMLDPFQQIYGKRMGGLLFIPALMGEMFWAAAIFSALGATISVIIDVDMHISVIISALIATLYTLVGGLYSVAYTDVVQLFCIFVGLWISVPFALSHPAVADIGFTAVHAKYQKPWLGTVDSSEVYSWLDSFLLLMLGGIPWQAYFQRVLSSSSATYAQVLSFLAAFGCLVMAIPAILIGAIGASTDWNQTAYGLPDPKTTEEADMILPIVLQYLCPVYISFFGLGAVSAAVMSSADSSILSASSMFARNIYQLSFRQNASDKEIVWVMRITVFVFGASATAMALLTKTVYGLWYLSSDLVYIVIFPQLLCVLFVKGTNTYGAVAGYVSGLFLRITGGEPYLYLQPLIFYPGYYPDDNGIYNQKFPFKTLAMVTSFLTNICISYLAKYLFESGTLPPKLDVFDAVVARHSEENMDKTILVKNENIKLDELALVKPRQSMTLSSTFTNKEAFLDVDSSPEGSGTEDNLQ

`COc1ccc(C(=O)NCc2cc(C(C)C)no2)cc1OCc1ccncc1`: the activity remaining, low choline is 85.9% (inactive) and the activity remaining, high choline was 83.8%.
On the same counts, the results for `COc1ccc(C(=O)NCC2OCCc3ccccc32)cc1OC1CCN(C(C)C)CC1` (configuration not stated) are 71.9% (inactive) and 67.1%.
The matching figures for `COc1ccc(CNC(=O)c2ccc(OC)c(OC3CCN(C(C)C)CC3)c2)cc1OC`: 52.7% (inactive) and 83.6%.
Turning to `COc1ccc(C(=O)NCc2ccccc2C)cc1OC1CCN(C(C)C)CC1`, the activity remaining, low choline was 32.9% and the activity remaining, high choline stood at 64.8%.
For `CCc1cc(CNC(=O)c2ccc(OC)c(OCCOC)c2)on1`, the activity remaining, low choline was 89.1% (inactive) and the activity remaining, high choline amounted to 80.6%.
On the same counts, the results for `COc1ccc(C(=O)NCCN2CCCCC2=O)cc1OC1CCN(C(C)C)CC1` are 80.3% (inactive) and 84.5%.
On the same counts, the results for `COc1ccc(C(=O)NCc2cc(C(C)C)no2)cc1OCC1CCC1` are 94.9% (inactive) and 92.7%.
`CCc1cc(CNC(=O)c2ccc(OC)c(OCCN3CCCCC3)c2)on1`: the activity remaining, low choline was 22.7% and the activity remaining, high choline stood at 38.2%.
The matching figures for `CCc1cc(CNC(=O)c2ccc(OC)c(OCC3CCC3)c2)on1`: 91.1% (inactive) and 70.2%.
Regarding `COc1ccc(C(=O)NCCN2CCOC2=O)cc1OC1CCN(C(C)C)CC1`, the activity remaining, low choline was 41.8% and the activity remaining, high choline is 97.6%.
As to `COc1ccc(C(=O)NCC2CCOCC2)cc1OC1CCN(C(C)C)CC1`, the activity remaining, low choline is 80% (inactive) and the activity remaining, high choline turned out to be 74.5%.
On the same counts, the results for `COc1ccc(C(=O)NC2CCCCC2)cc1OC1CCN(C(C)C)CC1` are 72.2% (inactive) and 78.8%.
The matching figures for `COc1ccc(C(=O)NCC[C@@H]2C[C@@H]3C=C[C@H]2C3)cc1OC1CCN(C(C)C)CC1`: 9.91% and 66.3%.
The matching figures for `CCc1cc(CNC(=O)c2ccc(OC)c(OC3CCNCC3)c2)on1`: 62.2% (inactive) and 94.7%.
Regarding `COc1ccc(C(=O)NCc2cccc(C)c2)cc1OC1CCN(C(C)C)CC1`, the activity remaining, low choline was 29.4% and the activity remaining, high choline was found to be 60.9%.
As for `COc1ccc(C(=O)NCc2cc(C(C)C)no2)cc1OCc1cccnc1`, the activity remaining, low choline was 87.3% (inactive) and the activity remaining, high choline is 95.5%.
On the same counts, the results for `CCc1cc(CNC(=O)c2ccc(OC)c(OCc3ccccc3)c2)on1` are 90% (inactive) and 107%.
The matching figures for `COc1ccc(C(=O)NC(C)c2cn(C)nc2C)cc1OC1CCN(C(C)C)CC1` (configuration not stated): 57.1% (inactive) and 73.9%.
The matching figures for `COc1ccc(C(=O)NCc2cc(C(C)C)no2)cc1OCC1CCCCC1`: 87.2% (inactive) and 83%.
Consider `COc1ccc(C(=O)NCC(C)Oc2cccnc2)cc1OC1CCN(C(C)C)CC1` (configuration not stated), for which the activity remaining, low choline is 43.1% and the activity remaining, high choline turned out to be 71.2%.
The matching figures for `CCc1cc(CNC(=O)c2ccc(OC)c(OC3CCCN(C)C3)c2)on1` (configuration not stated): 56.5% (inactive) and 67.1%.
On the same counts, the results for `CCc1cc(CNC(=O)c2ccc(OC)c(OC3CCCC3)c2)on1` are 98% (inactive) and 99.4%.
The matching figures for `CCc1cc(CNC(=O)c2ccc(OC)c(OCCN3CCCC3)c2)on1`: 59.3% (inactive) and 71.4%.
`CCc1cc(CNC(=O)c2ccc(OC)c(O)c2)on1`: the activity remaining, low choline was 93.7% (inactive) and the activity remaining, high choline was found to be 90.1%.
The matching figures for `CCOc1cc(C(=O)NCc2cc(CC)no2)ccc1OC`: 86.4% (inactive) and 87.1%.
On the same counts, the results for `COc1ccc(C(=O)NCc2ccc(Cl)s2)cc1OC1CCN(C(C)C)CC1` are 35.3% and 81%.
In the case of `COc1ccc(C(=O)NCCCn2cccn2)cc1OC1CCN(C(C)C)CC1`, the activity remaining, low choline was 20.4% and the activity remaining, high choline is 77.5%.
The matching figures for `COc1ccc(C(=O)NCc2cnn(C)c2C)cc1OC1CCN(C(C)C)CC1`: 33.1% and 57%.
Regarding `COc1ccc(C(=O)NCc2cc(C(C)C)no2)cc1OCc1ccccn1`, the activity remaining, low choline is 87.2% (inactive) and the activity remaining, high choline came out at 100%.
The matching figures for `COc1ccc(C(=O)NCc2cc(C(C)C)no2)cc1OC(C)C`: 89.4% (inactive) and 99.8%.
On the same counts, the results for `COc1ccc(C(=O)NCc2cc(C(C)C)no2)cc1OCc1ccccc1` are 90.8% (inactive) and 97.2%.
On the same counts, the results for `CCc1cc(CNC(=O)c2ccc(OC)c(OC(C)CN(C)C)c2)on1` (configuration not stated) are 77.1% (inactive) and 57.9%.
Turning to `CCCCOc1cc(C(=O)NCc2cc(C(C)C)no2)ccc1OC`, the activity remaining, low choline is 85.6% (inactive) and the activity remaining, high choline amounted to 88.8%.
The matching figures for `COc1ccc(C(=O)NCCCn2ccnc2)cc1OC1CCN(C(C)C)CC1`: 52.4% (inactive) and 60.8%.
The matching figures for `COc1ccc(C(=O)NCCc2c[nH]c3ccccc23)cc1OC1CCN(C(C)C)CC1`: 15.9% and 58%.
The matching figures for `COc1ccc(C(=O)NCCc2ccncc2)cc1OC1CCN(C(C)C)CC1`: 71.2% (inactive) and 82.8%.
As for `CCOc1cc(C(=O)NCc2cc(C(C)C)no2)ccc1OC`, the activity remaining, low choline was 93.9% (inactive) and the activity remaining, high choline was determined as 78.2%.
Consider `COc1ccc(C(=O)N[C@H]2CC[C@H](O)CC2)cc1OC1CCN(C(C)C)CC1`, for which the activity remaining, low choline is 29.7% and the activity remaining, high choline is 101%.
On the same counts, the results for `COc1ccc(C(=O)NCc2ccon2)cc1OC1CCN(C(C)C)CC1` are 46% and 83.3%.
As to `CCc1cc(CNC(=O)c2ccc(OC)c(OC3CCN(C)CC3)c2)on1`, the activity remaining, low choline is 7.98% and the activity remaining, high choline turned out to be 56.4%.
The matching figures for `CCc1cc(CNC(=O)c2ccc(OC)c(OCc3ccccn3)c2)on1`: 90.2% (inactive) and 102%.
The matching figures for `CCc1cc(CNC(=O)c2ccc(OC)c(OCCN3CCOCC3)c2)on1`: 69.2% (inactive) and 78.9%.
On the same counts, the results for `COc1ccc(C(=O)NCc2cc(C(C)C)no2)cc1OCCCN(C)C` are 67.3% (inactive) and 59.6%.
For the compound `COCCOc1cc(C(=O)NCc2cc(C(C)C)no2)ccc1OC`, the activity remaining, low choline was 86.8% (inactive) and the activity remaining, high choline turned out to be 84.5%.
The matching figures for `CCc1cc(CNC(=O)c2ccc(OC)c(OC(=O)c3ccc(OC)c(O)c3)c2)on1`: 92.3% (inactive) and 88.5%.
In the case of `COc1ccc(C(=O)N[C@H]2CCCCNC2=O)cc1OC1CCN(C(C)C)CC1`, the activity remaining, low choline is 13.1% and the activity remaining, high choline worked out at 73.4%.
As for `COc1ccc(C(=O)NCCc2cnn(C)c2)cc1OC1CCN(C(C)C)CC1`, the activity remaining, low choline was 36.7% and the activity remaining, high choline was determined as 88.3%.
The matching figures for `CCc1cc(CNC(=O)c2ccc(OC)c(OCc3cccnc3)c2)on1`: 94.5% (inactive) and 72%.
On the same counts, the results for `COc1ccc(C(=O)NC(C)c2nccs2)cc1OC1CCN(C(C)C)CC1` (configuration not stated) are 34.1% and 72.1%.
The matching figures for `CCCCOc1cc(C(=O)NCc2cc(CC)no2)ccc1OC`: 92.3% (inactive) and 62.3%.
Turning to `CCc1cc(CNC(=O)c2ccc(OC)c(OC3CCN(C(C)C)CC3)c2)on1`, the activity remaining, low choline was 92.9% (inactive) and the activity remaining, high choline amounted to 71%.
